From article PMC8903829 (eLife, 2022)
Several values for one entry are separate records, joined by “and”; a condition that tells them apart may be missing. Equal values may be shown once. Read-outs that look alike come from different tables or passages of the source.

Legend:
hNaV1.5 = biological target: T1, hNaV1.5 (Homo sapiens, UniProt Q14524); experiment: Qube 384 automated patch-clamp, inactivated-state inhibition; type: cell-based
T1 construct: expression vector containing the full-length cDNA coding for specific human and mouse sodium channel α-subunit; expressed in transfected cells
T1 sequence (Q14524 whole entry): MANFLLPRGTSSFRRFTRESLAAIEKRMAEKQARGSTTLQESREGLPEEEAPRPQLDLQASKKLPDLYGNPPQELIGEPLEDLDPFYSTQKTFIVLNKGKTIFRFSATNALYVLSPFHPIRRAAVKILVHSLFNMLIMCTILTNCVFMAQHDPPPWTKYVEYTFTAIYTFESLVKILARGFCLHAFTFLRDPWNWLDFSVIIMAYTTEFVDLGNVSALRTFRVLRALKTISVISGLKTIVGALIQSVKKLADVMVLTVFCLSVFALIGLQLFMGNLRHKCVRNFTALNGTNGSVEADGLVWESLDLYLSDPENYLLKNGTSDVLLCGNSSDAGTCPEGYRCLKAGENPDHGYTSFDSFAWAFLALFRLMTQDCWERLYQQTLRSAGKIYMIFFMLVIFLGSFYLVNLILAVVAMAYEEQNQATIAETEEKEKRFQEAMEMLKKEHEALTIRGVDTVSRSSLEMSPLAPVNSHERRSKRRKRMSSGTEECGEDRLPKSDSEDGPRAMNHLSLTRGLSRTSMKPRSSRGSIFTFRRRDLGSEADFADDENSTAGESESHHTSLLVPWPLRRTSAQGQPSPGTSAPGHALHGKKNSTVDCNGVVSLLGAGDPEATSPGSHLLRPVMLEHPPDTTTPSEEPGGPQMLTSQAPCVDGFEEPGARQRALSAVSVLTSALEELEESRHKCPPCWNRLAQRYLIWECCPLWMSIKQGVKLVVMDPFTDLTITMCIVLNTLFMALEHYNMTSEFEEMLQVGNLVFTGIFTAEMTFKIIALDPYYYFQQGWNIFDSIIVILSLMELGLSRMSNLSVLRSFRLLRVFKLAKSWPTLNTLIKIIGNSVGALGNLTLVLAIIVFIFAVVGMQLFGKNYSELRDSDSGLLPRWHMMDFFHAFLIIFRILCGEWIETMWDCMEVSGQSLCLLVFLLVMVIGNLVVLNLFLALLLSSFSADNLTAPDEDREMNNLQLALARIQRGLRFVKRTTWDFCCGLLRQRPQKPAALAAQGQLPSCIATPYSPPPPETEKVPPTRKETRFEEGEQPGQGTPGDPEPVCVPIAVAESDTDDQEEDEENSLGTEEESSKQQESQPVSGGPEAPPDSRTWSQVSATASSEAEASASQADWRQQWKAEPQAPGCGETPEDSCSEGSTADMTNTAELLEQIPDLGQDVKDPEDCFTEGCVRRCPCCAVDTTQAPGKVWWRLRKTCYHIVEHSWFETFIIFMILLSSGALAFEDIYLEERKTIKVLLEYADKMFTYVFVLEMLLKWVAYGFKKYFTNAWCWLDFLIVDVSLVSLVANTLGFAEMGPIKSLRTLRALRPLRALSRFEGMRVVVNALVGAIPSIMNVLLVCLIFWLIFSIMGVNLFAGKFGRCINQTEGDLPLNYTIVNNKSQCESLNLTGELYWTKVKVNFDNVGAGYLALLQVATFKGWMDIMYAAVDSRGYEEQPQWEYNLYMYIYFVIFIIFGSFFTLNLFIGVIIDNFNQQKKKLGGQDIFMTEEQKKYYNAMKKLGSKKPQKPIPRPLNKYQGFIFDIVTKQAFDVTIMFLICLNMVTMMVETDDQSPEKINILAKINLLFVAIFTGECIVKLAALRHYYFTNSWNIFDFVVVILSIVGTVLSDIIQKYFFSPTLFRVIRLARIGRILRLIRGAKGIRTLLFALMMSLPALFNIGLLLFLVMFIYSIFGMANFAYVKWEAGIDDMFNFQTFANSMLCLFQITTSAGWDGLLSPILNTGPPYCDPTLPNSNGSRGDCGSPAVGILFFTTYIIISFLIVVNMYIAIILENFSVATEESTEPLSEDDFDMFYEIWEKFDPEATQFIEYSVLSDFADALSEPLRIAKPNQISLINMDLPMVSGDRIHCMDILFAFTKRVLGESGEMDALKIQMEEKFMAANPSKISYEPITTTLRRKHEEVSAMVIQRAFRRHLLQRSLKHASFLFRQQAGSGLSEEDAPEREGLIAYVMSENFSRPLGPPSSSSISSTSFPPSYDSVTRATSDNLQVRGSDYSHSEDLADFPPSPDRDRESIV

[1] = biological target: T2, hNaV1.6(N1768D) resurgent currents (Homo sapiens, UniProt Q9UQD0, N1768D); experiment: Resurgent current inhibition; type: cell-based
T2 construct: expression vector containing the full-length cDNA coding for specific human and mouse sodium channel α-subunit; expressed in transfected cells
T2 sequence (Q9UQD0 whole entry N1768D): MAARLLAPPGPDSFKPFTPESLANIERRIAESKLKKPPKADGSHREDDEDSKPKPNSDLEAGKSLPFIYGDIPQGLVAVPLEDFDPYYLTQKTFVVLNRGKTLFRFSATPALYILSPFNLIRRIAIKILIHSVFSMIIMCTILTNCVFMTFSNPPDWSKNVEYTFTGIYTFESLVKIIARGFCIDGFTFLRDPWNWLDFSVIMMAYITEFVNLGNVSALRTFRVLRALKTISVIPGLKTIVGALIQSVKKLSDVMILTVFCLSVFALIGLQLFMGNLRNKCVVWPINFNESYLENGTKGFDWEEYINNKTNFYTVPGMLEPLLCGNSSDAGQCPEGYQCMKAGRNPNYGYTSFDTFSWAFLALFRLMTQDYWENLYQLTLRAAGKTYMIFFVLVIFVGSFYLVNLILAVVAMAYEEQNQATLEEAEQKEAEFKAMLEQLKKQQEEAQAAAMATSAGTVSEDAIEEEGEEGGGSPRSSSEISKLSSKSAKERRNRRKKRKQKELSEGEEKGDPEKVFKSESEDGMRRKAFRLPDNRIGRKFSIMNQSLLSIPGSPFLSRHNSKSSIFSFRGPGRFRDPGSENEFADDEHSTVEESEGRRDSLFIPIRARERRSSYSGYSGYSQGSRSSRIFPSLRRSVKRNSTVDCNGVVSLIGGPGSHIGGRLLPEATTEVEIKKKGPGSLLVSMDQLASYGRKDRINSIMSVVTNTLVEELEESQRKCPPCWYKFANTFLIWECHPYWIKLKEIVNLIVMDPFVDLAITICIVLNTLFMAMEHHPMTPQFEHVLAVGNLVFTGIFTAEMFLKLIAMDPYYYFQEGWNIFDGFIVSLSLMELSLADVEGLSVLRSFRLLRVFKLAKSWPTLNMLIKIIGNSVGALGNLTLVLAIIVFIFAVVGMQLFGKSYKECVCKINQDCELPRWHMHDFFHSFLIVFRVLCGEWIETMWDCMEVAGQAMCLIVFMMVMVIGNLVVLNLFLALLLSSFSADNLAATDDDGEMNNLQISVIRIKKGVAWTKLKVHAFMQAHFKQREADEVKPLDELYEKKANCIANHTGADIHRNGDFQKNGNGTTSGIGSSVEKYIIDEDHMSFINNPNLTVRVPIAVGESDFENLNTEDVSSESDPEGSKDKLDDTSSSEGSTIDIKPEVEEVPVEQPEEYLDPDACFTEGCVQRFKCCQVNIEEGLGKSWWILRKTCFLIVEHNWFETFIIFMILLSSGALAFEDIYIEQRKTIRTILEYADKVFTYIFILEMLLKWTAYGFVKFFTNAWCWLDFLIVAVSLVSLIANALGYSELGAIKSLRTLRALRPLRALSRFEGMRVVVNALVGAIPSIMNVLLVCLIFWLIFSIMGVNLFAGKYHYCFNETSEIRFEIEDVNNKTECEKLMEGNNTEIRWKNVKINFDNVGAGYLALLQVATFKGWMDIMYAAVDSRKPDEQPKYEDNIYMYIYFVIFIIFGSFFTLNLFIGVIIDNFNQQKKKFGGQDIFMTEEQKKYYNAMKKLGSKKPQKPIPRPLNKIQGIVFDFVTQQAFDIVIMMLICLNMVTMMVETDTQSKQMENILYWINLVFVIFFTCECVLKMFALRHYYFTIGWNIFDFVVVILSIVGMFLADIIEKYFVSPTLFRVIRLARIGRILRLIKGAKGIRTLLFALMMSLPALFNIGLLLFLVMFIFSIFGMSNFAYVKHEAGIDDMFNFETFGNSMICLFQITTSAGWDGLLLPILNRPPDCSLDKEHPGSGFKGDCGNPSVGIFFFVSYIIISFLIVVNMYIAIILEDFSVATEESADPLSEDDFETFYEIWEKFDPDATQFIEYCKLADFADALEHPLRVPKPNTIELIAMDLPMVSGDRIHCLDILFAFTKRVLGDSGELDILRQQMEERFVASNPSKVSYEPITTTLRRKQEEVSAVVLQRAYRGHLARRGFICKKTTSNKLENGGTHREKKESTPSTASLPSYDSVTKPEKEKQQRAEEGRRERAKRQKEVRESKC
T2 sequence (Q92913 1-192 isoform Q92913-2 partner): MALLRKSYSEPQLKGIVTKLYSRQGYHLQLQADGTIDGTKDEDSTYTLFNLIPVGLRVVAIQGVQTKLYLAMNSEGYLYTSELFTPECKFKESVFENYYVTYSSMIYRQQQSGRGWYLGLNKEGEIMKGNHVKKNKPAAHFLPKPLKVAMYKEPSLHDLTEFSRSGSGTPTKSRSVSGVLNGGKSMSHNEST

Scn8a^N1768D/+ mice = experiment: Modified 6 Hz psychomotor seizure assay; type: in vivo, mouse; conditions: for SCN8a mouse 6Hz chronic, Fraction of animals seizing: day 7, 2 hr after 13th dose; for SCN8a mouse 6Hz acute, Fraction of animals seizing: 2 hr; for EC50: Scn8a^N1768D/+ 6 Hz model
Description: Phenytoin was formulated in physiologic saline and was administered intraperitoneally (i.p.) using a 25-gauge needle at a dose volume of 10 mL/kg. All compounds were administered 2 hr prior to electrical seizure induction for all seizure models employed in this study.
Scn8a^N1768D/+heterozygous mice were tested at 5 weeks of age (p35). The modified 6 Hz seizure assay in Scn8a^N1768D/+heterozygous mice was adapted from the traditional 6 Hz assay psychomotor seizure assay to provide a measure of in vivo on target (NaV1.6 mediated) efficacy ([Barton et al., 2001]). The modified assay used a low frequency (6 Hz) but long-duration stimulation (3 s) to induce seizures. […] An electroshock (6 Hz, 12 mA) was delivered for 3 s (at 0.3-ms pulse interval) by corneal electrodes (Electro Convulsive Therapy Unit 57,800 from Ugo Basile). Immediately prior to the electroshock, the animals’ eyes were anesthetized with a drop of Alcaine (0.5% proparacaine hydrochloride).
An animal was considered protected in the assay upon prevention of GTC with hindlimb extension and was then scored ‘0’. An animal displaying GTC with hindlimb extension was considered not protected and is then scored ‘1’. The experimenter scoring the seizure behavior was blinded to the treatment.

[2] = Bioanalytical assessment of plasma and brain concentrations after 6 Hz assay; type: in vivo, mouse; conditions: for Mean [Plasma] / Mean [Brain] / concentration at 2 hr: Scn8a mice; for concentration at 2 hr: mouse, po
Description: Approximately 0.5 mL of blood was collected from each mouse at the end of the assay via cardiac puncture under deep anesthesia. The blood samples were collected in a syringe and transferred to tubes containing EDTA. Blood was stored at 4 °C until centrifuged within 30 min of collection. Plasma was harvested and placed on dry ice and stored in a freezer set to maintain a temperature of –70°C to –80°C until analysis. Brains were harvested immediately after blood collection and placed on dry ice prior to storage in a freezer set to maintain a temperature of –70°C to –80°C until analysis.
Extraction of plasma samples was carried out by protein precipitation using acetonitrile. Plasma samples (50 µL) were mixed with 50 µL of internal standard (IS) solution in water followed by addition of 10 µL of concentrated ortho-phosphoric acid and 200 µL of acetonitrile. Samples were vortexed for 30 seconds, centrifuged at 13,000 rpm for 20 min, decanted in to a 96-well plate, and further centrifuged at 4000 rpm for 20 min. The samples were analyzed by UHPLC-ESI-MS/MS as described below.
Prior to extraction, pre-weighed whole brains were homogenized in 1:1 acetonitrile/water (v/v) (4 mL per mouse brain) using an IKA T18 ULTRA-TURRAX Homogenizer at the setting of 4 for approximately 2 min. The homogenate was centrifuged at 13,000 rpm for 20 min and 50 µL of the supernatant were treated exactly as described above for plasma samples. […]
Samples were analyzed by UHPLC-ESI MS/MS using a TQ-5500 Sciex triple quadrupole mass spectrometer equipped with a Shimadzu Nexera UHPLC pump and auto-sampler system using an ACE C18 PFP, 2.50 × 50 mm, 1.7 µm particle size column and gradient elution consisting of solvent A (0.1% formic acid in water) and solvent B (0.1% formic acid in acetonitrile) starting at 20% B from 0 min to 0.4 min and then increased to 100% B from 0.4 min to 0.6 min. At 2.0 min, the mobile phase composition was switched back to […] for 1 min. The flow rate used throughout the experiment was […]. […] The UHPLC-ESI MS/MS system was controlled by Analyst 1.6.
Sample concentrations were determined using a linear calibration function, weighted 1 /X, generated by the regression of analyte to IS peak area ratios in the standard samples to their respective concentrations. Acceptance criteria for the analytical run required that the back calculated values of the standards and the QC samples fell within ±20% of their nominal values, except for the lowest standard or lower limit of quantitation (LLOQ), for which the acceptance criterion was ±25%. At least 6 out of 12 standard points had to show back-calculated values within ±20% of their nominal concentrations for the calibration to be accepted. At least three QC samples, one at each level, had to show back-calculated values within ±20% of their nominal concentrations for the whole sample batch to be valid.

hNaV1.4 = hNaV1.4 (Homo sapiens, UniProt P35499); experiment: Qube 384 automated patch-clamp, inactivated-state inhibition
[3] = 6 mg/kg PO every 12 hr, day 7, 2 hr after 13th dose, 6 mg/kg
[4] = 100 mg/kg PO single dose, after assay 2 hr post dose, 100 mg/kg

SMILES: Cc1cc(S(=O)(=O)Nc2cscn2)c(F)cc1N(C)[C@H]1CCN(Cc2ccccc2)C1 [NBI-921352]
- inhibition at 30 µM (hNaV1.5; 30 µM, NaV1.5, read-out: inhibition at the highest concentration tested): < 50%
- hNaV1.5 current (352)/(Vehicle), mean (hNaV1.5; -4.52288 Log M): 0.24
- hNaV1.5 current (352)/(Vehicle), mean (hNaV1.5; -5 Log M): 0.1
- hNaV1.5 current (352)/(Vehicle), mean (hNaV1.5; -5.47716 Log M): 0.02
- hNaV1.5 current (352)/(Vehicle), mean (hNaV1.5; -5.95429 Log M): 0.05
- hNaV1.5 current (352)/(Vehicle), mean (hNaV1.5; -6.91009 Log M): 0.04
- hNaV1.5 current (352)/(Vehicle), mean (hNaV1.5; -7.38722 Log M): -0.02
- hNaV1.5 current (352)/(Vehicle), mean (hNaV1.5; -7.85387 Log M): 0.03
- N1768D current in (352)/(Vehicle), Resurgent, mean ([1]; -5 Log M): 0.94
- N1768D current in (352)/(Vehicle), Resurgent, mean ([1]; -5.47716 Log M): 0.88
- N1768D current in (352)/(Vehicle), Resurgent, mean ([1]; -5.95429 Log M): 0.86
- N1768D current in (352)/(Vehicle), Resurgent, mean ([1]; -6.91009 Log M): 0.8
- N1768D current in (352)/(Vehicle), Resurgent, mean ([1]; -7.38722 Log M): 0.57
- N1768D current in (352)/(Vehicle), Resurgent, mean ([1]; -7.85387 Log M): 0.18
- IC50 ([1]; NaVβ4 peptide 200 μM intracellular, read-out: apparent IC50 resurgent currents from N1768D channels): 37 nM
- SCN8a mouse 6Hz chronic, Fraction of animals seizing (Scn8a^N1768D/+ mice; 2 mg/kg PO every 12 hr): 0.5
- SCN8a mouse 6Hz acute, Fraction of animals seizing (Scn8a^N1768D/+ mice; 2 mg/kg PO single dose): 0.8
- SCN8a mouse 6Hz acute, Fraction of animals seizing (Scn8a^N1768D/+ mice; 3 mg/kg PO single dose): 0.8
- SCN8a mouse 6Hz chronic, Fraction of animals seizing (Scn8a^N1768D/+ mice; 6 mg/kg PO every 12 hr): 0.34 and 0.429 and 0.5
- SCN8a mouse 6Hz acute, Fraction of animals seizing (Scn8a^N1768D/+ mice; 6 mg/kg PO single dose): 0.5 and 0.667 and 0.834 and 0.715
- SCN8a mouse 6Hz acute, Fraction of animals seizing (Scn8a^N1768D/+ mice; 10 mg/kg PO single dose): 0.57 and 0.4
- SCN8a mouse 6Hz acute, Fraction of animals seizing (Scn8a^N1768D/+ mice; 30 mg/kg PO single dose): 0.43 and 0.5 and 0.333 and 0.4
- SCN8a mouse 6Hz acute, Fraction of animals seizing (Scn8a^N1768D/+ mice; 200 mg/kg PO single dose): 0
- SCN8a mouse 6Hz acute, Fraction of animals seizing (Scn8a^N1768D/+ mice; 300 mg/kg PO single dose): 0
- EC50 (Scn8a^N1768D/+ mice; Mus musculus, 2 hr post dose (oral; phenytoin i.p.), read-out: brain EC50): 64 nM
- EC50 (Scn8a^N1768D/+ mice; Mus musculus, 2 hr post dose, read-out: plasma EC50): 37 nM
- ED50 (Scn8a^N1768D/+ mice; Mus musculus, oral, 2 hr prior to stimulation, read-out: ED50, prevention of GTC with hindlimb extension): 15 mg/kg
- Mean [Plasma] ([2]; 3 mg/kg PO single dose, after assay 2 hr post dose, 3 mg/kg): 0.003985 µM
- Mean [Brain] [2, 3]: 0.02201 µM and 0.01923 µM
- Mean [Plasma] [2, 3]: 0.01663 µM and 0.02029 µM
- Mean [Plasma] ([2]; 10 mg/kg PO single dose, after assay 2 hr post dose, 10 mg/kg): 0.01541 µM
- Mean [Brain] ([2]; 30 mg/kg PO single dose, after assay 2 hr post dose, 30 mg/kg): 0.133 µM and 0.1224 µM and 0.09287 µM and 0.1253 µM
- Mean [Brain] [2, 4]: 0.3467 µM
- Mean [Plasma] [2, 4]: 0.5385 µM
- concentration at 2 hr ([2]; Scn8a^N1768D/+ (heterozygous gain-of-function knock-in line), brain, 30 mg/kg, 30 mg/kg PO single dose, after assay 2 hr post dose, read-out: Mean [Brain]): 96.6 nM
- concentration at 2 hr ([2]; Scn8a^N1768D/+ (heterozygous gain-of-function knock-in line), brain, 100 mg/kg, 100 mg/kg PO single dose, after assay 2 hr post dose, read-out: Mean [Brain]): 357 nM
- concentration at 2 hr ([2]; Scn8a^N1768D/+ (heterozygous gain-of-function knock-in line), plasma, 3 mg/kg, 3 mg/kg PO single dose, after assay 2 hr post dose, read-out: Mean [Plasma]): 3.45 nM
- concentration at 2 hr ([2]; Scn8a^N1768D/+ (heterozygous gain-of-function knock-in line), plasma, 10 mg/kg, 10 mg/kg PO single dose, after assay 2 hr post dose, read-out: Mean [Plasma]): 9.56 nM
- concentration at 2 hr ([2]; Scn8a^N1768D/+ (heterozygous gain-of-function knock-in line), plasma, 100 mg/kg, 100 mg/kg PO single dose, after assay 2 hr post dose, read-out: Mean [Plasma]): 717 nM
- concentration at 2 hr ([2]; Scn8a^N1768D/+, brain, 2 mg/kg, 2 mg/kg PO every 12 hr, day 7, 2 hr after 13th dose, read-out: Mean [Brain]): 10.5 nM
- concentration at 2 hr ([2]; Scn8a^N1768D/+, brain, 2 mg/kg, 2 mg/kg PO single dose, after assay 2 hr post dose, read-out: Mean [Brain]): 8.02 nM
- concentration at 2 hr ([2]; Scn8a^N1768D/+, brain, 6 mg/kg, 6 mg/kg PO every 12 hr, day 7, 2 hr after 13th dose, read-out: Mean [Brain]): 28.8 nM
- concentration at 2 hr ([2]; Scn8a^N1768D/+, brain, 200 mg/kg, 200 mg/kg PO single dose, after assay 2 hr post dose, read-out: Mean [Brain]): 3850 nM
- concentration at 2 hr ([2]; Scn8a^N1768D/+, brain, 300 mg/kg, 300 mg/kg PO single dose, after assay 2 hr post dose, read-out: Mean [Brain]): 6940 nM
- concentration at 2 hr ([2]; Scn8a^N1768D/+, plasma, 2 mg/kg, 2 mg/kg PO every 12 hr, day 7, 2 hr after 13th dose, read-out: Mean [Plasma]): 2.95 nM
- concentration at 2 hr ([2]; Scn8a^N1768D/+, plasma, 2 mg/kg, 2 mg/kg PO single dose, after assay 2 hr post dose, read-out: Mean [Plasma]): 1.08 nM
- concentration at 2 hr ([2]; Scn8a^N1768D/+, plasma, 6 mg/kg, 6 mg/kg PO every 12 hr, day 7, 2 hr after 13th dose, read-out: Mean [Plasma]): 13.2 nM
- concentration at 2 hr ([2]; Scn8a^N1768D/+, plasma, 200 mg/kg, 200 mg/kg PO single dose, after assay 2 hr post dose, read-out: Mean [Plasma]): 12600 nM
- concentration at 2 hr ([2]; Scn8a^N1768D/+, plasma, 300 mg/kg, 300 mg/kg PO single dose, after assay 2 hr post dose, read-out: Mean [Plasma]): 31500 nM
- accumulation in the plasma or tissue on repeated dosing ([2]; every 12 hr for 13 doses, mice and rats): did not appreciably accumulate
- IC50 (hNaV1.4): > 30000 nM
- inhibition at 30 µM (hNaV1.4; read-out: inhibition at the highest concentration tested): < 50%
